Results reported in US9771430B2, “Method of treating a metabolic disorder induced by obesity in a subject in need thereof by administering MK2/3 inhibitors” (THE TRUSTEES OF COLUMBIA UNIVERSITY IN THE CITY OF NEW YORK, priority 2011, dated 2017).

Assays:
ATF4 = assay: Nuclear ATF4 in primary mouse hepatocytes; format: cell-based; details: control HCs
Protocol: FIGS. 94A-F: Improvement in Insulin-induced Akt Phosphorylation and Glucose Homeostasis by CaMKII Deficiency are Abrogated by Restoring ATF4. FIG. 94A. HCs from Camk2g^fl/fl mice were transduced with adeno-LacZ or -Cre. 24 h later, cells were incubated with tunicamycin (0.5 μg/ml) or vehicle control for 4 h. Nuclear lysates were immunoblotted for ATF4 and nucleophosmin (Np) as a loading control. FIG. 94B. Nuclear ATF4 and nucleophosmin (Np) were probed in livers from DIO Camk2g^fl/fl mice treated with TBG-Cre or TBG-LacZ or ob/ob mice treated with adeno-LacZ or -K43A-CaMKII. FIG. 94C. HCs from […] were transduced with adeno-LacZ or -Cre and then 4 h later, half of the adeno-Cre transduced cells received adeno-ATF4, while the other half received adeno-LacZ control. After 24 h, the cells were incubated with palmitate and then insulin-induced p-Akt was assayed as in FIG. 92. FIG. 94D. As in FIG. 94C, except that Trb3 mRNA was assayed by RT-qPCR (Bars with different symbols are different from each other and control, p<0.01; mean±S.E.M.). […] Livers were assayed for p-Akt, total Aid, β-actin and nuclear ATF4 and nucleophosmin (Np) by immunoblotting after insulin injection through portal vein. 5 h fasting blood glucose and plasma insulin were assayed after three weeks of treatment (Differing symbols indicate p<0.05; mean±S.E.M.). See also FIG. 100.

TRB3 = TRB3 levels in primary mouse hepatocytes; format: cell-based; details: control HCs
Protocol: FIGS. 93A-E: Improvement in Insulin-induced Akt Phosphorylation and Glucose Homeostasis by CaMKII Deficiency are Abrogated by Restoring TRB3. FIG. 93A. HCs from Camk2g^fl/fl mice were transduced with adeno-LacZ or -Cre and then 24 h later incubated with BSA or palmitate (0.2 mM) for 19 h. Lysates were immunoblotted for TRB3 and β-actin. FIG. 93B. TRB3 and β-actin were probed in livers from DIO WT mice, Camk2g^−/− mice, or Camk2g^fl/fl mice treated with TBG-LacZ or TBG-Cre. Densitometric quantification of the immunoblot data is shown in the graph (*p<0.05; mean±S.E.M.). FIGS. 93C-E. DIO Camk2g^fl/fl mice were treated with TBG-Cre or TBG-LacZ, and five days later, half of the […] received adeno-TRB3, while the other half received adeno-LacZ control. Livers were assayed for p-Akt, total Aid, TRB3 and β-actin by immunoblotting after fasting the mice for 16 h and then re-feeding them for 4 h. 5 h fasting and fasted-refed blood glucose and plasma insulin were assayed after 4 weeks of treatment (Differing symbols indicate p<0.05; mean±S.E.M.). See also FIG. 99.

dach1 and dach2 mRNA = dach1 and dach2 mRNA in primary mouse hepatocytes; format: cell-based; details: WT HCs, 0.5 mM, 6 h
Protocol: FIG. 115. Palmitate induces dach1 and dach2 mRNA levels. Primary HCs from WT mice were treated with 0.5 mM palmitate for 6 h. RNA was assayed for dach1 and dach2 mRNA by RT-qPCR (*p<0.05; mean±S.E.M.).

Akt = assay: Insulin-induced Akt phosphorylation in palmitate-treated primary mouse hepatocytes; format: cell-based; details: HCs with normal p38 (Ad-LacZ)
Protocol: FIGS. 92A-D. Inhibition of CaMKII or p38α Improves Insulin-induced Akt Phosphorylation in Palmitate-treated Primary Hepatocytes. FIG. 92A. Primary HCs from WT mice were transduced with adeno-LacZ or -K43A-CaMKII at an MOI of 10 and then 24 h later incubated with either BSA control or 0.2 mM palmitate for 19 h, with the last 5 h in serum-free media. The cells were then treated with 100 nM insulin or vehicle control for 5 min, and lysates were probed for p-Akt, total Akt, and β-actin by immunoblot (left panel) or immunoprecipitated for IRS-1 and then assayed by immunoblot for the total level of IRS-1 or for phospho-Tyr (PY) (right panel). FIG. 92B. HCs from Mapk14^fl/fl mice were transduced with adeno-LacZ or -Cre and 24 h later incubated with palmitate and then insulin as in FIG. 92A. Lysates were probed for p-Akt, total Akt, β-actin (upper panel), p-GSK3β, total GSK3β, p-FoxO1 and total FoxO1 by immunoblot or immunoprecipitated for IR and IRS-1 and then assayed by immunoblot for the total level of the respective proteins or for phospho-Tyr (lower panel). FIG. 92C. Primary human HCs (metabolism-controlled) were transduced with adeno-LacZ or -K43A-CaMKII at an MOI of 30 and then 36 h later incubated with either BSA control or 0.2 mM palmitate for 10 h, with the last 5 h in serum-free media. […]

CaMKII = format: cell-based, mouse
Protocol: FIG. 1A. CaMKII enzyme activity was assayed in triplicate wells of primary mouse HCs stimulated with 100 nM glucagon (Gluc) or vehicle control (Veh) for the indicated times (*P<0.05 and **P<0.01 vs. Veh; mean±S.E.M.). FIGS. 1B-1J. Extracts of HCs or liver were probed for phospho-CaMKII, total CaMKII, and β-actin by immunoblot assay. FIG. 1B. HCs were incubated with […] glucagon for the indicated times; FIG. 1C. Glucagon was added to HCs that were pre-treated for 1 h with vehicle control (Veh) or 5 μM BAPTA-AM; FIG. 1D. Glucagon was added to HCs that were pre-treated with 0.5 μM xestospongin (XesC) or to HCs from Ip3r1fl/fl mice transduced with adeno-LacZ control or adeno-Cre (bar graph=Ip3r1 mRNA levels); FIG. 1E. Glucagon was added to HCs that were pre-treated for 1 h with vehicle control (Veh) or 10 μM H89. FIG. 1F. […] FIGS. 1G-1J. In vivo experiments. In FIG. 1G, mice were treated for 30 min with 200 μg kg−1 body weight of glucagon i.p., and in FIG. 1H, mice were pre-treated with 10 pmol g−1 xestospongin C or vehicle control i.p. 4 days prior to glucagon treatment. In FIGS. 1I-1J, mice were fed ad libitum or fasted for 12 h, or fasted for 12 h and then re-fed for 4 h.
Total RNA was extracted from hepatocytes using the RNeasy kit (Qiagen). cDNA was synthesized from 2 μg total RNA using oligo (dT) and Superscript II (Invitrogen). Real-time qPCR analysis and western blotting were performed as previously described (Timmins et al., 2009). Nuclear extraction from liver was performed using the Nuclear Extraction Kit from Panomics according to the manufacturer's instructions.
Immunoblot and RT-qPCR assays were performed as previously described (Timmins et al., 2009). Total RNA was extracted from HCs using the RNeasy kit (Qiagen). cDNA was synthesized from 2 μg total RNA using oligo (dT) and Superscript II (Invitrogen). Nuclear extraction from liver was performed using the Nuclear Extraction Kit from Panomics according to the manufacturer's instructions.

IP3R = IP3R activity in FAO hepatocytes (Inositol/ATP-induced calcium release assay); format: cell-based, rat
From the text: FIGS. 49A-S. The role of IP3R in forskolin/glucagon-induced G6Pase/PEPCK in cultured hepatocytes and in fasting blood glucose in vivo. FIG. 49 A,B. FSK-Induced G6Pase and PEPCK is Calcium-Dependent. FIG. 49C-D. IP3R Activity is Required for Forskolin- and Glucagon-Induced G6Pase and PEPCK (FAO rat hepatocyte cell line). FIG. 49E-F. IP3R Activity is Required for Forskolin-Induced G6Pase and PEPCK (primary murine hepatocytes). FIG. 49G-H. IP3R1 Anti-Sense Oligonucleotide Suppresses Forskolin-Induced G6Pase and PEPCK (primary murine hepatocytes). FIG. 49I. Forskolin Activates IP3R Activity in FAO Hepatocytes (Inositol/ATP-Induced Calcium Release Assay). FIG. 49J. The PKA Inhibitor H89 Suppresses Forskolin-Induced IP3R Activation. FIG. 49K-L. IP3R Activity is Required for Forskolin-Induced PGC1a. FIG. 49M-N. Calcineurin Inhibitory Peptide Suppresses Forskolin-Induced G6Pase and PEPCK. FIG. 49O. IP3R Activity is Required for Forskolin-Induced Calcineurin Activation. FIG. 49P-Q. IP3R Activity is Required for Forskolin-Induced TORC2 Dephosphorylation and Nuclear Localization. FIG. 49R. TORC2 Transduction Partially Restores Forskolin-Induced G6Pase in IP3R-Inhibited Hepatocytes. FIG. 49S. Xestospongin C Treatment Reduces Fasting Glucose Levels in C57BL/6J Mice.

cytosolic free calcium = assay: Calcium mobilization in primary hepatocytes (Fura-2 imaging); format: cell-based, mouse; details: co-/pre-treatment with inhibitor
Protocol: Mouse primary hepatocytes were plated on glass coverslips and loaded with 5 μM Fura-2 acetoxymethyl ester (Molecular Probes) in the presence of 0.025% (w/v) pluronic F127 (Sigma-Aldrich) in Media 199 (Mediatech) for 30 minutes. […] The ratio of fluorescence intensity at the two excitation wavelengths was calculated after subtracting background fluorescence. [Ca2+]I (cytosolic free calcium concentration) was calculated using a Fura-2 calcium imaging calibration kit (Invitrogen). Images were collected and analyzed using the MetaFluor software package (Universal Imaging Corp.). Graphs represent average responses from groups of 30-40 individual cells from representative single experiments. Bar graphs represent average responses (fold over average baseline) from 150-200 cells per condition. All experiments were repeated at least three times with similar results.

## tunicamycin
ATF4
  ATF4: increased

## CCCCCCCCCCCCCCCC(=O)O [palmitate]
TRB3
  TRB3 levels: increase
dach1 and dach2 mRNA
  dach1 and dach2 mRNA levels: induces
Akt
  insulin-induced p-Akt signal: lowered
CaMKII; ER stress activation
  p-CaMKIIγ in HCs: increased

## Cl.Cl.O=S(=O)(NCCNCC=Cc1ccc(Br)cc1)c1cccc2cnccc12 [H89, N-[2-[[3-(4-Bromophenyl)-2-propenyl]amino]ethyl]-5-isoquinolinesulfonamide dihydrochloride]
IP3R
  Forskolin-Induced IP3R Activation: Suppresses
Cytosolic free calcium
  cytosolic calcium mobilization in response to glucagon (and forskolin): partially reversed
CaMKII; HCs pre-treated with inhibitor, then glucagon
  glucagon-induced CaMKII phosphorylation: markedly inhibited
